≈ marks a conversion by molar mass, not a printed value. Where “and” joins values, the source holds several entries; their conditions need not be identical. Identical values can stand only once. Like-named read-outs stand apart in the source and are kept apart here.
Tests used:
AAC(3)-IIIa = molecular target: T1, AAC(3)-IIIa (Pseudomonas aeruginosa, UniProt P29808); assay: Isothermal titration calorimetry; assay type: binding, P. aeruginosa
T1 construct: 6xHis-tag (thrombin-cleavable, pET15b) (N); made in house; host or cells: LOBSTR E. coli
Procedure: (§1) To accurately measure protein ligand interactions, the concentration of our proteins of interest was measured spectrophotometrically using the NanoDrop OneC Spectrometer (Thermo Scientific). ITC experiments were performed on a MicroCal iTC 200 (General Electric) at 25 °C with stirring at 750 rpm. Unique buffer solutions were used for each enzyme. AAC(3)-Ia was prepared in 50 mM HEPES, pH 7, and 150 mM NaCl. AAC(3)-IIIa was prepared in 120 mM Tris, pH 7.5, and 150 mM NaCl. AAC(3)-XIa was prepared in 20 mM Tris, pH 7.5, and 150 mM NaCl. The cell contained 550 μM AAC(3)-Ia, 350 μM AAC(3)-IIIa, or 450 μM AAC(3)-XIa. All experiments also contained 5000 μM of coenzyme A trilithium salt in the cell. […] In all ITC experiments, aminoglycosides were prepared in the same buffering solution as the target protein. The ligands were injected 29 times ([…] per injection) with a 180 s interval between injections. Results were analyzed using ORIGIN software version 7E (MicroCal) using the molecular weight of a single protomer of each protein and fitted with a two-set of sites binding model (Supplementary Fig. 5). Data analysis was performed in Microsoft Excel and GraphPad5 software. One-way ANOVA and Tukey’s multiple comparison tests were used to determine the statistical significance of binding affinities.

AAC(3)-XIa = AAC(3)-XIa (Corynebacterium striatum, UniProt A0ABX7DED9); assay: Isothermal titration calorimetry; assay type: binding; settings: 25 °C, with coenzyme A, n = 3
Procedure: as §1

AAC(3)-Ia = AAC(3)-Ia (Acinetobacter baumannii, UniProt D7R512); assay: Isothermal titration calorimetry; assay type: binding
Procedure: as §1

[1] = system: BL21(DE3) E. coli transformed with pUCP18 vector expressing untagged AAC(3)-Ia; assay type: cell-based; settings: E. coli expressing AAC(3)-Ia
Procedure: (§2) Ten milliliters of LB containing […] ampicillin were inoculated from glycerol stocks of transformed BL21(DE3) E. coli containing genes expressing the proteins of interest in pUCP18 vectors. These cultures were incubated at 37 °C with 200 rpm agitation for 16 h. Turbidity was measured through OD600 with a NanoDrop OneC Spectrometer (Thermo Scientific). From the initial cultures, secondary 10 mL cultures were prepared with OD600 values of 0.1. These cultures were grown until OD600 values of 0.4–0.6 were reached and diluted to bring all cultures to the same OD600. Cultures were induced with 1 mM Isopropyl β-D-1-thiogalactopyranoside and incubated for 4 h. Two microliters of culture was added to 198 μL of LB with an appropriate aminoglycoside titration concentration. Each titration point was repeated n = 4 times. The formulated 96-well culture plate (Sarstedt) had OD600 measured on a 20-min interval over 17 h using a BioTek Cytation 5 Cell Imaging Multimode Reader, incubating at 37 °C with 282 cpm orbital agitation. Experiments were repeated with fresh cultures on separate days to ensure consistent trends. Data was analyzed in Microsoft Excel and GraphPad5. The remainder of the culture immediately had its RNA isolated for qPCR experiments.

[2] = system: BL21(DE3) E. coli transformed with pUCP18 vector expressing untagged AAC(3)-XIa; assay type: cell-based; settings: E. coli expressing AAC(3)-XIa
Procedure: as §2

[3] = system: BL21(DE3) E. coli transformed with pUCP18 vector expressing untagged AAC(3)-IIIa; assay type: cell-based; settings: E. coli expressing AAC(3)-IIIa
Procedure: as §2

[4] = system: empty pUCP18 vector transformed E. coli; assay: Antibiotic susceptibility testing, endpoint MIC assay; assay type: cell-based; settings: Escherichia coli; empty pUCP18 vector control E. coli; after 20 h of growth; read-out: Endpoint minimum inhibitory concentration (MIC)
Procedure: (§3) Ten milliliters of cultures of LB containing […] ampicillin were inoculated from glycerol stocks of transformed BL21(DE3) E. coli containing genes expressing the proteins of interest in pUCP18 vectors. Experiments were performed using 6xHis-tagged fusion-proteins, as well as untagged wild-type proteins. These cultures were incubated at 37 °C with 200 rpm agitation for 16 h. Turbidity was measured through OD600 with a NanoDrop OneC Spectrometer (Thermo Scientific). From the initial cultures, secondary 10 mL cultures were prepared with OD600 values of 0.1. These cultures were grown until OD600 values of 0.4–0.6 were reached and diluted to bring all cultures to the same OD600. Cultures were induced with 1 mM Isopropyl β-D-1-thiogalactopyranoside and incubated for 4 h. Cultures were diluted to 1 × 10^6 cells mL^−1. Two microliters of culture was added to 198 μL of LB with an appropriate aminoglycoside titration concentration. The formulated 96-well culture plate (Sarstedt) was incubated at 37 °C with 120 rpm orbital agitation. The remainder of the bacterial culture was immediately lysed and processed for Western blotting. OD600 was measured after 20 h using the Molecular Devices Spectra MAX 190 plate reader.

[5] = system: BL21(DE3) E. coli transformed with pUCP18 vector expressing AAC(3)-XIa; assay: as above; assay type: cell-based; settings: Escherichia coli, 20 h, read-out: Endpoint minimum inhibitory concentration (MIC)
Procedure: as §3

[6] = system: BL21(DE3) E. coli transformed with pUCP18 vector expressing AAC(3)-Ia; assay: as above; assay type: cell-based; settings: Escherichia coli, 20 h, read-out: Endpoint minimum inhibitory concentration (MIC)
Procedure: as §3

[7] = system: BL21(DE3) E. coli transformed with pUCP18 vector expressing AAC(3)-IIIa; assay: as above; assay type: cell-based; settings: Escherichia coli, 20 h, read-out: Endpoint minimum inhibitory concentration (MIC)
Procedure: as §3

[8] = system: CNC(C)C1CCC(N)C(OC2C(N)CC(N)C(OC3OCC(C)(O)C(NC)C3O)C2O)O1; assay: purified protein, by the assay type; settings: other: AAC(3)-IIIa, 22 °C, pH 6.5, 150 μM acetyl coenzyme A, n = 3
Procedure: The acetylation of aminoglycosides was measured by a coupled assay, where the formation of pyridine-4-thiolate can be detected at 324 nm[42],[43]. The kinetic assays were performed at room temperature (22 °C) in quartz cuvettes (pathlength 1 cm) at a final volume of 0.8 mL. Reaction solution contained 25 mM MOPS pH 6.5, 100 mM NaCl, 500 μM 4,4’-dipyridyl disulfide (Aldrithiol™-4, Sigma-Aldrich), 150 μM acetyl coenzyme A, and aminoglycoside concentrations varying from 1.25 to 160 μM. […] All reactions were run in triplicate, and data analysis was performed using GraphPad5 software. One-way ANOVA and Tukey’s multiple comparison tests were used to determine the statistical significance of catalytic efficiencies.

[9] = molecular target: AAC(3)-Ia from Acinetobacter baumannii (Acinetobacter baumannii); assay: crystal structure; AAC(3)-Ia with CoASH, with or without sisomicin; sitting-drop vapor diffusion at 22 °C, 0.1 M Tris pH 8.5, 0.05 M MgCl2, 20% EtOH, 35% PEG 400; one protomer per asymmetric unit, dimer by crystallographic symmetry
[10] = system: CN[C@@H]1[C@@H](O)[C@@H](O[C@@H]2[C@@H](O)[C@H](O[C@H]3OC(CN)=CC[C@H]3N)[C@@H](N)C[C@H]2N)OC[C@]1(C)O; assay: Michaelis-Menten kinetics, coupled acetylation assay (pyridine-4-thiolate at 324 nm); assay type: biochemical, Corynebacterium striatum; settings: other: AAC(3)-XIa, 22 °C, pH 6.5, 150 μM acetyl coenzyme A, n = 3
Procedure: (§4) The acetylation of aminoglycosides was measured by a coupled assay, where the formation of pyridine-4-thiolate can be detected at 324 nm[42],[43]. The kinetic assays were performed at room temperature (22 °C) in quartz cuvettes (pathlength 1 cm) at a final volume of 0.8 mL. Reaction solution contained 25 mM MOPS pH 6.5, 100 mM NaCl, 500 μM 4,4’-dipyridyl disulfide (Aldrithiol™-4, Sigma-Aldrich), 150 μM acetyl coenzyme A, and aminoglycoside concentrations varying from 1.25 to 160 μM. The reaction was initialized by the addition of AAC(3)-Ia to a final concentration of 0.2 μM, AAC(3)-XIa to a final concentration of 1.94 μM, or AAC(3)-IIIa to a final concentration of 0.4 μM, where UV absorbance was measured over 5 min. All reactions were run in triplicate, and data analysis was performed using GraphPad5 software. One-way ANOVA and Tukey’s multiple comparison tests were used to determine the statistical significance of catalytic efficiencies.

[11] = system: CNC(C)C1CCC(N)C(OC2C(N)CC(N)C(OC3OCC(C)(O)C(NC)C3O)C2O)O1; assay: as above; assay type: biochemical, Corynebacterium striatum; settings: other: AAC(3)-XIa, 22 °C, pH 6.5, 150 μM acetyl coenzyme A, n = 3
Procedure: as §4

[12] = molecular target: AAC(3)-XIa from Corynebacterium striatum (Corynebacterium striatum); assay: crystal structure; AAC(3)-XIa partial-apo, with AcCoA, or with CoASH/AcNHCoA and an aminoglycoside; sitting-drop vapor diffusion at 22 °C, 0.1 M trisodium acetate pH 4.6, 10–30% MPD, 0–24% PEG 200; both protomers of the dimer in the asymmetric unit
[13] = first set of sites, 25 °C, with coenzyme A, n = 3
[14] = second set of sites, 25 °C, with coenzyme A, n = 3
[15] = AAC(3)-XIa, second set of sites
[16] = AAC(3)-Ia, first set of sites, 25 °C, with coenzyme A, n = 3
[17] = AAC(3)-Ia, second set of sites, 25 °C, with coenzyme A, n = 3
[18] = 6 μg mL^−1 sisomicin, 3 μg mL^−1 gentamicin

CNC(C)C1CCC(N)C(OC2C(N)CC(N)C(OC3OCC(C)(O)C(NC)C3O)C2O)O1 (centres unmarked) [Gentamicin, gentamicin] showed a TΔS (AAC(3)-IIIa; [13]) of 3.6 ± 0.053 kcal/mol, a ΔG (AAC(3)-IIIa; [13]) of -6.94 ± 0.077 kcal/mol and a ΔH (AAC(3)-IIIa; [13]) of -3.34 ± 0.056 kcal/mol. The “N (sites)” value (AAC(3)-IIIa; first set of sites, two-set of sites model, 25 °C, with coenzyme A, n = 3) was 0.63 ± 0.01 sites, the Kd (AAC(3)-IIIa; first set of sites, two-set of sites model, 25 °C, with coenzyme A, n = 3, read-out: Kd) was 8.3 ± 0.2 µM and the Kd (AAC(3)-IIIa; individual replicates, raw data behind Fig. 6, read-out: Kd) was 8 µM and 8.13 µM and 8.7 µM. For the same molecule, the “N2 (sites)” value (AAC(3)-IIIa; [14]) was 0.63 ± 0.01 sites, the “TΔS 2” value (AAC(3)-IIIa; [14]) was 5.24 ± 0.043 kcal/mol and the “ΔG 2” value (AAC(3)-IIIa; [14]) was -6.69 ± 0.077 kcal/mol. The “ΔH 2” value (AAC(3)-IIIa; [14]) was -1.46 ± 0.063 kcal/mol, the Kd (AAC(3)-IIIa; second set of sites, 25 °C, with coenzyme A, n = 3, read-out: Kd2) was 12.4 ± 0.5 µM and the TΔS (AAC(3)-XIa; AAC(3)-XIa, first set of sites) was -1.38 ± 0.171 kcal/mol. For the same molecule, the ΔG (AAC(3)-XIa; AAC(3)-XIa, first set of sites) was -5.38 ± 2.88 kcal/mol, the ΔH (AAC(3)-XIa; AAC(3)-XIa, first set of sites) was -6.77 ± 2.87 kcal/mol and the “N (sites)” value (AAC(3)-XIa; AAC(3)-XIa, first set of sites, two-set of sites model) was 0.28 ± 0.06 sites. For the same molecule, the “N2 (sites)” value (AAC(3)-XIa; [15]) was 0.31 ± 0.05 sites, the “TΔS 2” value (AAC(3)-XIa; [15]) was -2.916 ± 1.036 kcal/mol and the “ΔG 2” value (AAC(3)-XIa; [15]) was -7.042 ± 1.18 kcal/mol. The “ΔH 2” value (AAC(3)-XIa; [15]) was -9.958 ± 0.567 kcal/mol, the Kd (AAC(3)-XIa; Kd2, AAC(3)-XIa, second set of sites) was 8.5 ± 5.5 µM and the Kd (AAC(3)-XIa; Kd, AAC(3)-XIa, first set of sites, two-set of sites model) was 6.1 ± 1.8 µM. For the same molecule, the TΔS (AAC(3)-Ia; [16]) was -0.808 ± 0.343 kcal/mol, the ΔG (AAC(3)-Ia; [16]) was -6.52 ± 0.418 kcal/mol and the ΔH (AAC(3)-Ia; [16]) was -7.33 ± 0.238 kcal/mol. The “N (sites)” value (AAC(3)-Ia; AAC(3)-Ia, first set of sites, two-set of sites model, 25 °C, with coenzyme A, n = 3) was 0.49 ± 0.02 sites, the “N2 (sites)” value (AAC(3)-Ia; [17]) was 0.57 ± 0.02 sites and the “TΔS 2” value (AAC(3)-Ia; [17]) was 4.24 ± 0.08 kcal/mol. The “ΔG 2” value (AAC(3)-Ia; [17]) was -6.3 ± 0.112 kcal/mol, the “ΔH 2” value (AAC(3)-Ia; [17]) was -2.06 ± 0.08 kcal/mol and the Kd (AAC(3)-Ia; Kd2, AAC(3)-Ia, second set of sites, 25 °C, with coenzyme A, n = 3) was 23.8 ± 0.3 µM. For the same molecule, the Kd (AAC(3)-Ia; Kd, AAC(3)-Ia, first set of sites, two-set of sites model, 25 °C, with coenzyme A, n = 3) was 17.1 ± 3.2 µM, the Kd (AAC(3)-Ia; Kd, AAC(3)-Ia, individual replicates, raw data behind Fig. 6) was 23.5 µM and 13.4 µM and 14.4 µM and the “Growth (OD600 growth curve)” value ([1]; 12 μg mL^−1 antibiotic, 17 h) was “none of the strains of transformed E. coli were able to grow at all”. The “Level of resistance relative to empty vector control (OD600 growth curve)” value ([1]; all concentrations tested) was “unable to outperform the empty vector control in any experiments”, the “Level of resistance relative to empty vector control (OD600 growth curve)” value [2, 18] was “greater level of resistance than the empty vector control” and the “Growth (OD600 growth curve)” value ([2]; 12 μg mL^−1 antibiotic, 17 h) was “none of the strains of transformed E. coli were able to grow at all”. For the same molecule, the “Level of resistance relative to empty vector control (OD600 growth curve)” value [3, 18] was “greater level of resistance than the empty vector control”, the “Growth (OD600 growth curve)” value ([3]; 12 μg mL^−1 antibiotic, 17 h) was “none of the strains of transformed E. coli were able to grow at all” and the MIC [4] was 6 µg/mL (≈ 12.6 µM). It also gave an MIC [5] of 12 µg/mL (≈ 25.1 µM), an MIC [6] of 6 µg/mL (≈ 12.6 µM) and an MIC [7] of 12 µg/mL (≈ 25.1 µM).
AAC(3)-IIIa (Pseudomonas aeruginosa) gave a Km [8] of 13 ± 4 µM, a kcat [8] of 36 ± 5 s⁻¹ and a kcat/Km [8] of 2.7e+06 ± 1.1e+06 M⁻¹ s⁻¹.
“AAC(3)-Ia from Acinetobacter baumannii (enzyme)” was tested, and the stoichiometry N [9] was 2.
With AAC(3)-XIa (Corynebacterium striatum) the Km [10] was 6.8 ± 0.7 µM, the kcat [10] was 0.4 ± 0.01 s⁻¹ and the kcat/Km [10] was 60000 ± 10000 M⁻¹ s⁻¹. The Km [11] was 0.8 ± 0.2 µM, the kcat [11] was 0.2 ± 0.003 s⁻¹ and the kcat/Km [11] was 200000 ± 40000 M⁻¹ s⁻¹.
Work on “AAC(3)-XIa from Corynebacterium striatum (enzyme)” yielded a stoichiometry N [12] of 2.

— PMC12378234, “Enzyme-mediated aminoglycoside resistance without target mimicry” (Communications Chemistry, 2025)
